For 4 compounds, activity results are on record in US20260007680A1, “Compounds and Their Use as PDE4 Activators” (Mironid Limited, priority 2022, published 2026).

Molecules are shown by their SMILES.

In this experiment the test system is m-IMCD3 cells. The experiment is described as follows: Inhibition of PGE2-stimulated in vitro cyst formation in 3D culture of m-IMCD3 cells (Experiment 4). The class given is cell-based, mouse. The settings on record: Mus musculus, mIMCD3, 144 h, 10 μM test compound, mean cyst area compared to 100% for (DMSO + PGE2) and 0% for DMSO control, read-out: % Cyst area* after incubation with 10 μM test compound.

Regarding `Cc1cncc(-c2nc3cc(C(=O)N[C@H]4CCOc5ccccc54)ccc3[nH]2)c1` [Example 4, (S)—N-(chroman-4-yl)-2-(5-methylpyridin-3-yl)-1H-benzo[d]imidazole-5-carboxamide], the activity at 10 µM was 18%.

In the case of `Cc1cncc(-c2nc3ccc(C(=O)N[C@H]4CCOc5ccccc54)cc3n2C)c1` [Example 28, (S)—N-(chroman-4-yl)-1-methyl-2-(5-methylpyridin-3-yl)-1H-benzo[d]imidazole-6-carboxamide], the activity at 10 µM amounted to 8%.

As for `Cc1ccc(-c2nc3cc(C(=O)N[C@H]4CCOc5ccccc54)ccc3[nH]2)cn1` [Example 2, (S)—N-(chroman-4-yl)-2-(6-methylpyridin-3-yl)-1H-benzo[d]imidazole-5-carboxamide], the activity at 10 µM is 17%.

Consider `Cc1ccncc1-c1nc2cc(C(=O)N[C@H]3CCOc4ccccc43)ccn2n1` [Example 53, (S)—N-(chroman-4-yl)-2-(4-methylpyridin-3-yl)-[1,2,4]triazolo[1,5-a]pyridine-7-carboxamide], for which the activity at 10 µM amounted to 20%.
